Experimental data taken from patent US20160235677A1, “METHOD OF CONVERTING A CRYSTALLINE COMPOUND TO AN AMORPHOUS COMPOUND, METHOD OF INCREASING THE SOLUBILITY OF A CRYSTALLINE COMPOUND IN A BIORELEVANT FLUID, AND NANOPARTICLES THAT ACHIEVE SUPERSATURATION” (Nanocopoeia, LLC., priority 2014, published 2016).
Values after ≈ are worked out from the molar mass of the structure shown. Like-named read-outs stand apart in the source and are kept apart here.

Tests used:
[1] = Caco-2 Monolayer Test Method; type: in vitro ADME; details: human; Caco-2 monolayers, apical to basolateral, powder equivalent to 200 μg GF in 1 mL buffer pH 7.4, 2 h
Experimental: Caco-2 monolayers are prepared in Millipore 96-cell Caco-2 plates and are used after a 3-week differentiation period. The monolayers separate the apical, or donor well, from the basolateral, or recipient well. The buffer used for the apical side is 1.98 g/L glucose in 10 mM HEPES, Hank's Balanced Salt Solution (HBSS) lx, with calcium, magnesium, without phenol red (HyClone, Logan, Utah) pH 7.4. The impermeable dye Lucifer yellow (in an amount of 100 μM) is added to test monolayer integrity. The basolateral side buffer is buffer, pH 7.4, without dye. […] The amount of test powder is selected to assure that if the powder was completely dissolved, the amount is sufficient to achieve ˜12 to 13 times the saturation concentration of the compound of interest previously measured in HBSS (15 μg/mL), in other words, a supersaturated solution. […] Where the compound of interest is not a substrate for p-glycoprotein (pGP), B→A efflux is not measured.
Buffer test samples are added to apical wells at 1 h after preparation and buffer alone is added to the basolateral side. […] The plates are assumed to be intact if there is no increase in fluorescence from leaking Lucifer yellow dye from the apical side. Individual cell monolayers are assumed intact if there is no increase in fluorescence in aliquots taken from the basolateral wells. […]

[2] = Dissolution in Biorelevant Medium Using Non-Sink Condition (griseofulvin powders in FaSSIF); type: physicochemical; details: GF dissolution in FaSSIF, 5 hour experiment
Experimental: A modified low-volume shaker flask method is used to assess the dissolution behavior of samples under supersaturated conditions. A 75 mL aliquot of FaSSIF, adjusted to pH 6.5, is added to each of six 150 mL Erlenmeyer flasks, which are then stoppered. The liquid is then heated to and maintained at 37° C.±1° C. using a benchtop incubated orbital shaker with a multi position stir plate (Forma Scientific 4520, Thermo Fisher Scientific, Waltham, Mass.). A 38 mm×9 mm stir bar is placed in each flask and stirring is started at 150 rotations per minute (RPM). A control sample, containing the compound of interest, and experimental samples are added to separate flasks in amounts sufficient to provide an amount of the compound of interest equivalent to the control sample. At each of 5 min, 15 min, 20 min, 30 min, 45 min, 60 min, 120 min, 240 min, and 300 min, 3 mL of dissolution media is removed from each flask, and immediately filtered through a 13 mm, 0.2 μm nylon filter with glass prefilter (EMD Millipore, Billerica, Mass.) after first discarding the first 2 mL of the sample. […]
The HPLC analysis is performed using an Ace C18, 2.1×150 mm, 3 μm chromatographic column maintained at 30° C. […] Quantification is performed based on linear calibration curve ranging from 10 ng/mL to 1000 ng/mL using peak response ratio.
For the Dissolution in Biorelevant Medium Using Non-Sink Condition analysis, a 24 mg sample of Control 1, i.e., griseofulvin powder, and an amount of Examples 1-7 sufficient to provide an amount of griseofulvin equivalent to the amount of Control 1, i.e., 24 mg, was added to each flask. Quantification was performed based on linear calibration curve ranging from 10 to 1000 ng/mL using peak response ratio. […]
Dry powder produced as describe above in Examples 8-11 was evaluated in the biorelevant medium FaSSIF, comparing ENS-processed powders with physical mixtures at similar ratios of GF:SP. […]

[3] = X-Ray Powder Diffraction (XRD) crystallinity / physical state; type: physicochemical; details: griseofulvin materials, result in words
Experimental: X-ray powder diffraction is performed at room temperature using a Bruker D8 Discover using a Cu Kα radiation, point source filtered with a graphite monochromator and a Bruker Hi-Star two-dimensional x-ray detector (Bruker, Karlsruhe, Germany). Powder samples are pressed onto a sample holder made of single-crystal quartz cut off-axis. The reflected intensity is collected at 0.04° resolution from 2Θ=2° to 62° with an acquisition time of 20 minutes. Data analysis is performed using the JADE 8.0 software package (Materials Data Inc., Livermore, Calif.) with whole pattern fitting. The test method has a detection limit of 2% crystallinity. […]

[4] = Equilibrium / saturation solubility in test media; type: physicochemical; details: GF, previously measured
[5] = non-sink, 24 mg GF equivalent in 75 mL, 37° C.

Papp A→B at 2 h, 200 μg/mL [1]: 28 ± 2.5 ×10⁻⁶ cm/s
Cmax [2, 5]: 18.3 µg/mL
Tmax [2, 5]: 30 min
AUC ([2]; area under the concentration-time curve): 5,202
physical state by XRD [3]: completely crystalline material
solubility thermodynamic ([4]; HBSS, saline or isotonic, read-out: saturation concentration in HBSS): 15 µg/mL (≈ 42.5 µM)
solubility thermodynamic ([4]; water, thermodynamic from solid, read-out: equilibrium solubility in water): 6 to 10 µg/mL (≈ 17 to 28.3 µM)
SMILES: COC1=CC(=O)C[C@@H](C)[C@]12Oc1c(Cl)c(OC)cc(OC)c1C2=O [Control 1, (+)-griseofulvin]
